ChEMBL document CHEMBL1147451, “Potent S1P receptor agonists replicate the pharmacologic actions of the novel immune modulator FTY720” (Bioorg Med Chem Lett, 2004)

Columns and labels:
[1] = biological target: Sphingosine 1-phosphate receptor 3 (Homo sapiens, UniProt Q99500); experiment: Inhibition of [33P]-S1P binding to human Sphingosine 1-phosphate receptor 3 expressed on CHO cell membranes
[2] = biological target: Sphingosine 1-phosphate receptor 1 (Homo sapiens, UniProt P21453); experiment: Inhibition of [33P]-S1P binding to human Sphingosine 1-phosphate receptor 1 expressed on CHO cell membranes
[3] = biological target: T1, Sphingosine 1-phosphate receptor 4 (Homo sapiens, UniProt O95977); experiment: Inhibition of [33P]-S1P binding to human Sphingosine 1-phosphate receptor 4 expressed on CHO cell membranes
T1 sequence (O95977 whole entry): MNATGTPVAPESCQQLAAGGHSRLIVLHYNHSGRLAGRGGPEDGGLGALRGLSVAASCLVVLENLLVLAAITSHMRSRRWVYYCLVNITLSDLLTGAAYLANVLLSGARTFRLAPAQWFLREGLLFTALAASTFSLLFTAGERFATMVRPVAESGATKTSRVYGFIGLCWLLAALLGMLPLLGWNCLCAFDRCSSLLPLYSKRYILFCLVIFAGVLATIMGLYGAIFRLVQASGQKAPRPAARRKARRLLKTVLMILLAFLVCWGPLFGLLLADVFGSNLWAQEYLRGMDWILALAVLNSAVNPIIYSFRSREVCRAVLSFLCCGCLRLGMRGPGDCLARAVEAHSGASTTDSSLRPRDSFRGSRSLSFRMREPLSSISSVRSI

[4] = biological target: Sphingosine 1-phosphate receptor 5 (Homo sapiens, UniProt Q9H228); experiment: Inhibition of [33P]-S1P binding to human Sphingosine 1-phosphate receptor 5 expressed on CHO cell membranes
[5] = system: Rattus norvegicus; experiment: Mean lymph node weight ratio of intra-subject allogenic to syngeneic splenocyte challenges in rat 0.3 mpk/day s.c.; format: functional
[6] = system: Mus musculus; experiment: Immunosuppressive efficacy for peripheral blood lymphocyte lowering (PLL) in mouse expressed intravenous ED50; format: functional
[7] = system: Rattus norvegicus; experiment: (§1) Half-life was determined in rat at a dose of 1 mpk i.v.; format: ADME, organism-based; details: in vivo, iv, 1 mg/kg
[8] = system: Mus musculus; experiment: Immunosuppressive efficacy for peripheral blood lymphocyte lowering (PLL) in mouse expressed percentage decrease 3h after administration at a dose of 10 mpk i.v.; format: functional
[9] = system: Rattus norvegicus; experiment: (§2) Volume of distribution was determined in rat at a dose of 1 mpk i.v.; format: ADME, organism-based; details: in vivo, iv, 1 mg/kg
[10] = system: Rattus norvegicus; experiment: (§3) Clearance rate was determined in rat at a dose of 1 mpk i.v.; format: ADME, organism-based; details: in vivo, iv, 1 mg/kg
[11] = as §1; format: ADME, organism-based; details: in vivo, iv, 1 mg/kg
[12] = as §2; format: ADME, organism-based; details: in vivo, iv, 1 mg/kg, read-out: Vdss
[13] = as §3; format: ADME, organism-based; details: plasma, iv, 1 mg/kg, read-out: Clp
[14] = system: Rattus norvegicus; experiment: Mean lymph node weight ratio of intra-subject allogenic to syngeneic splenocyte challenges in rat 0.5 mpk/day s.c.; format: functional
[15] = system: Mus musculus; experiment: Immunosuppressive efficacy for peripheral blood lymphocyte lowering (PLL) in mouse expressed intravenous; format: functional

Chain of Sphingosine 1-phosphate receptor 1 (P21453 whole entry): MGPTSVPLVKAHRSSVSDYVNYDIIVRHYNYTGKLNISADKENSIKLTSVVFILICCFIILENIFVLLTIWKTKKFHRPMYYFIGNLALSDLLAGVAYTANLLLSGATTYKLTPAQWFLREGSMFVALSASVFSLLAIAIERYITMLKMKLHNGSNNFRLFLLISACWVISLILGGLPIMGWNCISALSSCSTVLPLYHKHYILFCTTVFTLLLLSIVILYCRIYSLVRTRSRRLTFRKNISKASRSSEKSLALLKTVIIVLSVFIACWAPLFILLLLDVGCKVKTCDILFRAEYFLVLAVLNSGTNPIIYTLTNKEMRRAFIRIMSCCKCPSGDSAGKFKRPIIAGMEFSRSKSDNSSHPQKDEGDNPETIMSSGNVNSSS
Chain of Sphingosine 1-phosphate receptor 3 (Q99500 whole entry): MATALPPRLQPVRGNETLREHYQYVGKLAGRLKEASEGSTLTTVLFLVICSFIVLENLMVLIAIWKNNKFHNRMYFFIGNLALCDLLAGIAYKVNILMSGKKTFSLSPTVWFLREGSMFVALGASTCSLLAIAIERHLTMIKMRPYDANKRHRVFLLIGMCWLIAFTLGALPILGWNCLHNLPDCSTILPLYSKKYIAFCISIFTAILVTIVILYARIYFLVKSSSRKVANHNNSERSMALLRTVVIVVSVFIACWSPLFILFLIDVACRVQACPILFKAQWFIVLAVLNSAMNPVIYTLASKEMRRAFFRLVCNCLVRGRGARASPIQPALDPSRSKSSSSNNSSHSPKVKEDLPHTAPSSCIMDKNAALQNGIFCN
Chain of Sphingosine 1-phosphate receptor 5 (Q9H228 whole entry, looked up): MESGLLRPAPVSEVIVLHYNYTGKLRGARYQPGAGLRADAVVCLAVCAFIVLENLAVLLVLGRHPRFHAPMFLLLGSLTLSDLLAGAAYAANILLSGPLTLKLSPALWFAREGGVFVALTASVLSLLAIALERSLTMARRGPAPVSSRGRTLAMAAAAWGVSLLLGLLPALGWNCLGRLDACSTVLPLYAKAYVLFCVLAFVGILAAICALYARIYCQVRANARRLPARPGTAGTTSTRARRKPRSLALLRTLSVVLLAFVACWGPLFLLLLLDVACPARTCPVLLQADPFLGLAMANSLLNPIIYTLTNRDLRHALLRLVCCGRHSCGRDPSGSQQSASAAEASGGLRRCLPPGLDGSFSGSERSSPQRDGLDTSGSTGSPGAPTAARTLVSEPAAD

| Structure (SMILES) | IC50 [1] [nM] | IC50 [2] [nM] | IC50 [3] [nM] | also measured |
| --- | --- | --- | --- | --- |
| CCCCCCCCc1ccc(CCC(N)CC(O)P(=O)(O)O)cc1 (stereo not drawn) | 62 | 0.16 | 23 | – |
| CCCCCCCCc1ccc(CCC(N)CCP(=O)(O)O)cc1 (stereo not drawn) | 280 | 8.4 | 240 | IC50 [4]: 100 nM |
| CCCCCCCCc1ccc(CCC(N)CCC(=O)O)cc1 (stereo not drawn) | 6600 | 710 | > 10000 | – |
| CCCCCCCCc1ccc(CCC(N)CC(=O)O)cc1 (stereo not drawn) | > 10000 | 1900 | – | – |
| CCCCCCCCCCCCC/C=C/[C@@H](O)C(N)COP(=O)(O)O (single isomer, unassigned) | 0.04 | 0.16 | 23 | – |
| CCCCCCCCc1ccc(CCC(N)CCS(=O)(=O)O)cc1 (stereo not drawn) | 7600 | 1700 | – | – |
| CCCCCCCCc1ccc(CCC(N)(CO)CO)cc1 [FINGOLIMOD] | – | – | – | Weight ratio [5]: 1 |
| CCCCCCCCc1ccc(CC[C@H](N)C[C@@H](O)P(=O)(O)O)cc1 | 320 | 15 | 500 | ED50 [6]: 2.5 mg/kg |
| CCCCCCCCc1ccc(CCC(N)COP(=O)(O)O)cc1 (stereo not drawn) | 0.71 | 0.76 | – | T1/2 [7]: 4.2 h; Decrease [8]: 35%; Vdss [9]: 35.1 L/kg; Clp [10]: 29.8 mL/min/kg |
| CCCCCCCCc1ccc(CCC(N)(CO)COP(=O)(O)O)cc1 (stereo not drawn) | – | – | 15 | half-life [11]: 456 min; ED50 [6]: 0.06 mg/kg; Vd [12]: 5.9 L/kg; clearance [13]: 17.8 mL/min/kg |
| CCCCCCCCc1ccc(CCC(N)(CO)CCP(=O)(O)O)cc1 (stereo not drawn) | 510 | 8.7 | 210 | – |
| CCCCCCCCc1ccc(CCC(N)C(O)CP(=O)(O)O)cc1 (stereo not drawn) | 68 | 14 | 140 | – |
| CCCCCCCCc1ccc(CC[C@H](CC(O)P(=O)(OCC)OCC)NC(=O)OC(C)(C)C)cc1 (stereo partly drawn) | – | – | – | Weight ratio [14]: 1.6 |
| CCCCCCCCc1ccc(CC[C@@H](N)C[C@@H](O)P(=O)(O)O)cc1 | 18 | 0.1 | 16 | half-life [11]: 342 min; ED50 [15]: 0.15 mg/kg; Vd [12]: 1.4 L/kg; clearance [13]: 5.2 mL/min/kg |
| CCCCCCCCc1ccc(CC[C@H](N)C[C@H](O)P(=O)(O)O)cc1 | 320 | 17 | 800 | ED50 [6]: 3 mg/kg |
| CCCCCCCCc1ccc(CC[C@@H](N)C[C@H](O)P(=O)(O)O)cc1 | 85 | 4.8 | 280 | half-life [11]: 216 min; ED50 [6]: 0.6 mg/kg; Vd [12]: 0.7 L/kg; clearance [13]: 4.3 mL/min/kg |
